Drawing on BindingDB's records for doi:10.7270/Q2RB7351 (Technical University of Gdansk, 1997), this text covers IC50 and Ki for 14 compounds.

Glutamine--fructose-6-phosphate aminotransferase [isomerizing], sequence (P53704 whole entry): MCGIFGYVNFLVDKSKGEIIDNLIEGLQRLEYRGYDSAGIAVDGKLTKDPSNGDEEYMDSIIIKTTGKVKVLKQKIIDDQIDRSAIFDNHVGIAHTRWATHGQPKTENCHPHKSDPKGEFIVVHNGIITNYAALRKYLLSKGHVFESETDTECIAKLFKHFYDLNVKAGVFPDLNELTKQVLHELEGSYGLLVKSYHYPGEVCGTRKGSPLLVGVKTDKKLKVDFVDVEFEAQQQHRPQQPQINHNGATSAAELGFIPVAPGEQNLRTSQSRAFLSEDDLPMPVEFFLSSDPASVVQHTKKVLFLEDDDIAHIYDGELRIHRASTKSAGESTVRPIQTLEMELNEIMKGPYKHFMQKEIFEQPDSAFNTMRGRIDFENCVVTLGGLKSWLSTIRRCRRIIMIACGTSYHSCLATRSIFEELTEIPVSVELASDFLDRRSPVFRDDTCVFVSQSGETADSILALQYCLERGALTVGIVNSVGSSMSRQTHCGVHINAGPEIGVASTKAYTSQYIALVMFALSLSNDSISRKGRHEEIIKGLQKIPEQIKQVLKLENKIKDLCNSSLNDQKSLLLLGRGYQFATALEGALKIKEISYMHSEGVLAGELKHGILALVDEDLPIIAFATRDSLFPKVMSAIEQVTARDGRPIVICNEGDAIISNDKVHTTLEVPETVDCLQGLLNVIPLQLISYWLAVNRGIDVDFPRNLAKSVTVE

This assay concerns the target Glutamine--fructose-6-phosphate aminotransferase [isomerizing] (Candida albicans (strain SC5314 / ATCC MYA-2876), UniProt P53704). Nature of the assay: Enzyme Assay. The note with it: pH 6.85. The source says:
Two assays of GlcN-6-P synthase activity were used 1)determination of GlcN-6_P formation by the modified Elson-Morgan procedure and 2) continuous quantitation of glutamate in a coupled assay with glutamate dehydrogenase in the presence of acetylpyridine adenine dinucleotide.
Regarding `CCNP(=O)(CCC(N)C(=O)OC)OC` [GlcN-6-P synthase inhibitor, 7 (racemic mixture)], the midpoint of inhibition, the IC50, lay at 7.8 mM and affinity was put at a Ki of 4.4 mM.

Turning to `CCN(CC)P(=O)(CCC(N)C(=O)OC)OC` [GlcN-6-P synthase inhibitor, 9 (racemic mixture)], it took 3.6 mM to reach half-maximal inhibition (IC50) and the inhibition constant (Ki) came out at 0.94 mM.

For the compound `COC(=O)C(N)CCP(=O)(O)OC` [GlcN-6-P synthase inhibitor, 4 (racemic mixture)], it took 2.6 mM to reach half-maximal inhibition (IC50) and the Ki came out at 1.2 mM.

`COC(=O)C(N)CCP(=O)(OC)N(C)C` [GlcN-6-P synthase inhibitor, 8 (racemic mixture)] had an IC50 of 4.4 mM and a Ki of 1.3 mM.

For the compound `COC(=O)C(N)CCS(C)(=O)=O` (racemic) [GlcN-6-P synthase inhibitor, 11 (racemic mixture)], the IC50 is more than 50 mM.

`COP(=O)(CCC(N)C(=O)O)OC` [GlcN-6-P synthase inhibitor, 3 (racemic mixture)]: the IC50 was more than 50 mM.

`COC(=O)C(N)CNS(C)(=O)=O` (racemic) [GlcN-6-P synthase inhibitor, 12 (racemic mixture)] gave an IC50 of more than 50 mM.

The compound `CCN(CC)S(=O)(=O)CCC(N)C(=O)OC` (racemic) [GlcN-6-P synthase inhibitor, 15 (racemic mixture)] yielded an IC50 of 1.6 mM and a Ki of 0.6 mM.

As for `N[C@@H](CCP(=O)(O)O)C(=O)O`, it took 26 mM to reach half-maximal inhibition (IC50) and affinity was put at a Ki of 12 mM.

On to `COC(=O)C(N)CCS(N)(=O)=O` (racemic) [GlcN-6-P synthase inhibitor, 14 (racemic mixture)], for which inhibition was half-maximal at 5.5 mM (IC50) and the affinity, expressed as Ki, was 2.8 mM.

Compound `COC(=O)C(N)CCP(=O)(OC)OC` [GlcN-6-P synthase inhibitor, 2 (racemic mixture)] registered an IC50 of more than 50 mM.

`COC(=O)C(N)CCS(C)(=N)=O` [GlcN-6-P synthase inhibitor, 13 (racemic mixture)]: the midpoint of inhibition, the IC50, lay at 2.8 mM and the Ki was 1.5 mM.

Take `COC(=O)C(N)CCP(N)(=O)OC` [GlcN-6-P synthase inhibitor, 6 (racemic mixture)]: the IC50 is 25 mM and the Ki amounted to 11 mM.

`CO[P@@](=O)(O)CC[C@H](N)C(=O)O` [GlcN-6-P synthase inhibitor, 5 (racemic mixture)] displayed an IC50 of 2 mM and a Ki of 0.9 mM.

By IC50 is commonly meant the midpoint of a concentration-inhibition curve. Lower therefore signals higher potency. The term Ki denotes a dissociation constant, usually derived from enzyme kinetics or from competition with a known ligand. Low values mean tighter binding, high ones weaker binding.
